# Reference: paper PMC7531004, “Discovery of gramicidin A analogues with altered activities by multidimensional screening of a one-bead-one-compound library” (Nature Communications, 2020)
# Where a SMILES comes first, the peptide text is derived from it. [ ]: non-standard residue; d: D form. The star is where a group is joined. NHCH2CH2OH = OCCN*; For = O=C*
# Experiments:
# [1] = tested on: Streptococcus pyogenes SSI-9; test: Antibacterial activity assay of bead-derived peptides (three concentrations); type: cell-based; parameters: key: +++: inhibition by the 640-fold diluted peptide solution; ++: inhibition by the 160-fold diluted solution; +: inhibition by the 40-fold diluted solution; -: no inhibition; settings: S. pyogenes, bead-derived peptide solution, three concentrations
# In short: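 Library peptide stock applied undiluted, 4-fold and 16-fold diluted in DMSO to S. pyogenes SSI-9 (2 × 10^5 CFU) in cation-adjusted Mueller Hinton broth with 5% laked horse blood. After 18 h at 37 °C, growth judged by visible cell precipitation.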
# [2] = H+/Na+ transport assay of bead-derived peptides (one-point); type: biochemical; parameters: key: relative activity; mean of two control wells = 1.00; settings: bead-derived peptide solution, EYPC/EYPG LUVs;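 note: relative to parent gramicidin A activity set to 1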
# In short: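 H+/Na+ transport is monitored through pyranine fluorescence in freshly extruded LUVs after a 30-min room-temperature vortex with each library peptide at a single concentration. Signals are normalized to detergent (Triton X-100) and untreated controls.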
# [3] = tested on: P388 mouse leukemia cells; settings: 92 h
# In short: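 P388 cells at 1 × 10^4 cells/mL (final) were exposed to library peptides (stocks diluted 250-fold in RPMI1640/10% FBS) for 92 h at 37 °C, 5% CO2. Viable cells were counted by WST-1/1-methoxy PMS (4 h), absorbance 415 nm, and expressed as cell viability (%).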
SMILES,antibacterial activity [1],H+/Na+ transport activity normalized against the value of 1 (1.00) [2],cell viability/% [3] [%]
CC(C)C[C@@H](NC(=O)[C@H](Cc1c[nH]c2ccccc12)NC(=O)[C@H](NC(=O)[C@H](Cc1c[nH]c2ccccc12)NC(=O)[C@H](NC(=O)[C@H](Cc1c[nH]c2ccccc12)NC(=O)[C@@H](CC(C)C)NC(=O)[C@@H](NC(=O)[C@H](NC(=O)[C@H](C)NC(=O)[C@H](NC(=O)[C@H](C)NC(=O)CNC(=O)[C@@H](NC=O)C(C)C)C(C)C)C(C)C)C(C)C)C(C)C)C(C)C)C(=O)N[C@@H](Cc1c[nH]c2ccccc12)C(=O)NCCO [compound 12721] (For-VGA[dV]A[dV]V[dL]W[dV]W[dV]W[dL]W-NHCH2CH2OH),+,1.04,51.7
CC(C)C[C@@H](NC(=O)[C@H](C)NC(=O)[C@H](NC(=O)[C@H](C)NC(=O)CNC(=O)[C@@H](NC=O)C(C)C)C(C)C)C(=O)N[C@H](C(=O)N[C@@H](C(=O)N[C@@H](Cc1c[nH]c2ccccc12)C(=O)N[C@H](CC(C)C)C(=O)N[C@@H](Cc1c[nH]c2ccccc12)C(=O)N[C@H](CC(C)C)C(=O)N[C@@H](Cc1c[nH]c2ccccc12)C(=O)N[C@@H](C(=O)N[C@@H](Cc1c[nH]c2ccccc12)C(=O)NCCO)C(C)C)C(C)C)C(C)C [compound 12789] (For-VGA[dV]A[dL]V[dV]W[dL]W[dL]W[dV]W-NHCH2CH2OH),-,1.04,9.6
CC(C)C[C@@H](NC(=O)[C@H](C)NC(=O)[C@H](NC(=O)[C@H](C)NC(=O)CNC(=O)[C@@H](NC=O)C(C)C)C(C)C)C(=O)N[C@H](C(=O)N[C@H](CC(C)C)C(=O)N[C@@H](Cc1c[nH]c2ccccc12)C(=O)N[C@H](CC(C)C)C(=O)N[C@@H](Cc1c[nH]c2ccccc12)C(=O)N[C@H](CC(C)C)C(=O)N[C@@H](Cc1c[nH]c2ccccc12)C(=O)N[C@H](CC(C)C)C(=O)N[C@@H](Cc1c[nH]c2ccccc12)C(=O)NCCO)C(C)C [compound 12877] (For-VGA[dV]A[dL]V[dL]W[dL]W[dL]W[dL]W-NHCH2CH2OH),-,1.04,4.7
CC(C)C[C@@H](NC(=O)[C@H](Cc1c[nH]c2ccccc12)NC(=O)[C@H](NC(=O)[C@H](Cc1c[nH]c2ccccc12)NC(=O)[C@@H](CC(C)C)NC(=O)[C@@H](NC(=O)[C@H](NC(=O)[C@H](C)NC(=O)[C@H](NC(=O)[C@H](C)NC(=O)CNC(=O)[C@@H](NC=O)C(C)C)C(C)C)C(C)C)C(C)C)C(C)C)C(=O)N[C@@H](Cc1c[nH]c2ccccc12)C(=O)N[C@@H](C(=O)N[C@@H](Cc1c[nH]c2ccccc12)C(=O)NCCO)C(C)C [compound 12947] (For-VGA[dV]A[dV]V[dL]W[dV]W[dL]W[dV]W-NHCH2CH2OH),+,1.02,10.2
CC(C)C[C@@H](NC(=O)[C@H](C)NC(=O)[C@H](NC(=O)[C@H](C)NC(=O)CNC(=O)[C@@H](NC=O)C(C)C)C(C)C)C(=O)N[C@H](C(=O)N[C@@H](C(=O)N[C@@H](Cc1c[nH]c2ccccc12)C(=O)N[C@@H](C(=O)N[C@@H](Cc1c[nH]c2ccccc12)C(=O)N[C@H](CC(C)C)C(=O)N[C@@H](Cc1c[nH]c2ccccc12)C(=O)N[C@@H](C(=O)N[C@@H](Cc1c[nH]c2ccccc12)C(=O)NCCO)C(C)C)C(C)C)C(C)C)C(C)C [compound 12950] (For-VGA[dV]A[dL]V[dV]W[dV]W[dL]W[dV]W-NHCH2CH2OH),+,1.08,97.0
CC(C)C[C@@H](NC(=O)[C@H](C)NC(=O)CNC(=O)[C@@H](NC=O)C(C)C)C(=O)N[C@@H](C)C(=O)N[C@@H](C(=O)N[C@H](C(=O)N[C@@H](C(=O)N[C@@H](Cc1c[nH]c2ccccc12)C(=O)N[C@H](CC(C)C)C(=O)N[C@@H](Cc1c[nH]c2ccccc12)C(=O)N[C@H](CC(C)C)C(=O)N[C@@H](Cc1c[nH]c2ccccc12)C(=O)N[C@H](CC(C)C)C(=O)N[C@@H](Cc1c[nH]c2ccccc12)C(=O)NCCO)C(C)C)C(C)C)C(C)C [compound 12972] (For-VGA[dL]A[dV]V[dV]W[dL]W[dL]W[dL]W-NHCH2CH2OH),++,1.33,0.0
CNC(=O)C[C@@H](NC(=O)[C@@H](NC(=O)[C@@H](CC(C)C)NC(=O)[C@H](C)NC(=O)[C@H](NC(=O)[C@H](C)NC(=O)CNC(=O)[C@@H](NC=O)C(C)C)C(C)C)C(C)C)C(=O)N[C@@H](Cc1c[nH]c2ccccc12)C(=O)N[C@@H](C(=O)N[C@@H](Cc1c[nH]c2ccccc12)C(=O)N[C@H](CC(C)C)C(=O)N[C@@H](Cc1c[nH]c2ccccc12)C(=O)N[C@H](CC(C)C)C(=O)N[C@@H](Cc1c[nH]c2ccccc12)C(=O)NCCO)C(C)C [compound 12975] (For-VGA[dV]A[dL]V[dD](NHMe)W[dV]W[dL]W[dL]W-NHCH2CH2OH),-,1.43,86.0
CC(C)C[C@@H](NC(=O)[C@H](C)NC(=O)CNC(=O)[C@@H](NC=O)C(C)C)C(=O)N[C@@H](C)C(=O)N[C@@H](C(=O)N[C@H](C(=O)N[C@H](CC(C)C)C(=O)N[C@@H](Cc1c[nH]c2ccccc12)C(=O)N[C@@H](C(=O)N[C@@H](Cc1c[nH]c2ccccc12)C(=O)N[C@@H](C(=O)N[C@@H](Cc1c[nH]c2ccccc12)C(=O)N[C@@H](C(=O)N[C@@H](Cc1c[nH]c2ccccc12)C(=O)NCCO)[C@H](C)O)C(C)C)C(C)C)C(C)C)C(C)C [compound 12984] (For-VGA[dL]A[dV]V[dL]W[dV]W[dV]W[dT]W-NHCH2CH2OH),-,1.08,81.1
CC(C)C[C@@H](NC(=O)[C@H](C)NC(=O)CNC(=O)[C@@H](NC=O)C(C)C)C(=O)N[C@@H](C)C(=O)N[C@H](CC(C)C)C(=O)N[C@H](C(=O)N[C@H](CC(C)C)C(=O)N[C@@H](Cc1c[nH]c2ccccc12)C(=O)N[C@H](CC(C)C)C(=O)N[C@@H](Cc1c[nH]c2ccccc12)C(=O)N[C@@H](C(=O)N[C@@H](Cc1c[nH]c2ccccc12)C(=O)N[C@@H](C(=O)N[C@@H](Cc1c[nH]c2ccccc12)C(=O)NCCO)C(C)C)[C@H](C)O)C(C)C [compound 12989] (For-VGA[dL]A[dL]V[dL]W[dL]W[dT]W[dV]W-NHCH2CH2OH),+,1.16,100.0
CC(C)C[C@@H](NC(=O)[C@H](C)NC(=O)[C@H](NC(=O)[C@H](C)NC(=O)CNC(=O)[C@@H](NC=O)C(C)C)C(C)C)C(=O)N[C@H](C(=O)N[C@@H](C(=O)N[C@@H](Cc1c[nH]c2ccccc12)C(=O)N[C@@H](C(=O)N[C@@H](Cc1c[nH]c2ccccc12)C(=O)N[C@@H](C(=O)N[C@@H](Cc1c[nH]c2ccccc12)C(=O)N[C@@H](C(=O)N[C@@H](Cc1c[nH]c2ccccc12)C(=O)NCCO)C(C)C)C(C)C)C(C)C)C(C)C)C(C)C [compound 13030] (For-VGA[dV]A[dL]V[dV]W[dV]W[dV]W[dV]W-NHCH2CH2OH),+,1.42,99.9
CC(C)C[C@@H](NC(=O)[C@H](Cc1c[nH]c2ccccc12)NC(=O)[C@H](NC(=O)[C@H](Cc1c[nH]c2ccccc12)NC(=O)[C@H](NC(=O)[C@H](Cc1c[nH]c2ccccc12)NC(=O)[C@H](NC(=O)[C@@H](NC(=O)[C@H](NC(=O)[C@H](C)NC(=O)[C@H](NC(=O)[C@H](C)NC(=O)CNC(=O)[C@@H](NC=O)C(C)C)C(C)C)[C@H](C)O)C(C)C)C(C)C)C(C)C)C(C)C)C(=O)N[C@@H](Cc1c[nH]c2ccccc12)C(=O)NCCO [compound 13062] (For-VGA[dV]A[dT]V[dV]W[dV]W[dV]W[dL]W-NHCH2CH2OH),-,1.06,92.8
CNC(=O)C[C@@H](NC(=O)[C@H](C)NC(=O)[C@@H](CC(C)C)NC(=O)[C@H](C)NC(=O)CNC(=O)[C@@H](NC=O)C(C)C)C(=O)N[C@H](C(=O)N[C@@H](C(=O)N[C@@H](Cc1c[nH]c2ccccc12)C(=O)N[C@H](CC(C)C)C(=O)N[C@@H](Cc1c[nH]c2ccccc12)C(=O)N[C@@H](C(=O)N[C@@H](Cc1c[nH]c2ccccc12)C(=O)N[C@H](CC(C)C)C(=O)N[C@@H](Cc1c[nH]c2ccccc12)C(=O)NCCO)C(C)C)C(C)C)C(C)C [compound 13123] (For-VGA[dL]A[dD](NHMe)V[dV]W[dL]W[dV]W[dL]W-NHCH2CH2OH),-,1.24,100.0
CC(C)C[C@@H](NC(=O)[C@H](C)NC(=O)CNC(=O)[C@@H](NC=O)C(C)C)C(=O)N[C@@H](C)C(=O)N[C@H](CC(C)C)C(=O)N[C@H](C(=O)N[C@@H](C(=O)N[C@@H](Cc1c[nH]c2ccccc12)C(=O)N[C@@H](C(=O)N[C@@H](Cc1c[nH]c2ccccc12)C(=O)N[C@@H](C(=O)N[C@@H](Cc1c[nH]c2ccccc12)C(=O)N[C@@H](C(=O)N[C@@H](Cc1c[nH]c2ccccc12)C(=O)NCCO)C(C)C)C(C)C)C(C)C)C(C)C)C(C)C [compound 13128] (For-VGA[dL]A[dL]V[dV]W[dV]W[dV]W[dV]W-NHCH2CH2OH),+,1.24,100.0
